Test results as given in US20150159192A1, “STERILIZATION INDICATORS INCLUDING A NEUTRALIZER AND METHODS” (3M INNOVATIVE PROPERTIES COMPANY, priority 2010, published 2015).
Where two headings read alike, the source gives them in different places.

How the values were obtained:
[1] = test system: Geobacillus stearothermophilus spores; test: Hydrogen peroxide neutralizers in BI recovery medium, spore outgrowth after STERRAD 100S cycle; format: cell-based; set-up: key to Negative Control / Positive Control: Pos*/Neg*—positive (yellow) or negative (purple) was discolored by the additive; Pos*/Neg*—positive (yellow) or negative (purple) was discolored by the additive; Neg^3—positive control did not grow
Experimental: This example compares the neutralization effectiveness of different additives in the biological indicators recovery medium. The additives (neutralizers) were added to the recovery media used in the 3M ATTEST 1292 Rapid Readout Biological Indicators. Catalase, L-cysteine, sodium thiosulfate, D-ethionine, S-methyl-cysteine, S-benzyl-L-cysteine, thiodiproprionic acid, potassium ferricyanide and sodium pyruvate were all purchased from Sigma-Aldrich Corporation, St. Louis, Mo. Isoascorbic acid was purchased from Alfa Aesar, Ward Hill, Mass. Methionine was purchased from Calbiochem, EMD Chemicals, Gibbstown, N.J.
3M ATTEST 1292 Biological Indicators were steam sterilized to kill the existing spore population. Two sets of 3M ATTEST 1292 BIs were evaluated, one set contained the paper spore carrier used in the commercially available indicator. In the second set, the spore carrier was replaced with fiberglass strips, commercially available as […] 230-11.0 (Crane &Co., Inc., Dalton, Mass.). The steam sterilized BIs were then exposed in a STERRAD 100S hydrogen peroxide/plasma sterilization cycle. Immediately following the hydrogen peroxide/plasma sterilization, the BIs containing media with and without additives were inoculated with less than 100 Geobacillus stearothermophilus spores recovered from a 3M ATTEST 1292 BI spore strip. The indicators were incubated at 60° C. (+/−2° C.) for 7 days and observed for growth, indicated by a color change from purple to yellow. A positive and negative control was tested for each additive. The positive controls were steam sterilized and inoculated with less than 100 spores. The negative controls were steam sterilized.

[2] = test system: Geobacillus stearothermophilus spores; test: Remediation of residual hydrogen peroxide, spore recovery method with sodium thiosulfate; format: cell-based
[3] = additive 1 g/l, CRANEGLAS fiberglass carrier, 7 days
[4] = additive 1 g/l, paper spore carrier, 7 days
[5] = additive 1 g/l, steam sterilized and inoculated with less than 100 spores, no H2O2
[6] = additive 1 g/l, steam sterilized, not inoculated
[7] = additive 2 g/l, CRANEGLAS fiberglass carrier, 7 days
[8] = additive 2 g/l, paper spore carrier, 7 days
[9] = additive 2 g/l, steam sterilized and inoculated with less than 100 spores, no H2O2
[10] = additive 2 g/l, steam sterilized, not inoculated
[11] = additive 4 g/l, CRANEGLAS fiberglass carrier, 7 days
[12] = additive 4 g/l, paper spore carrier, 7 days
[13] = additive 4 g/l, steam sterilized and inoculated with less than 100 spores, no H2O2
[14] = additive 4 g/l, steam sterilized, not inoculated
[15] = additive 8 g/l, CRANEGLAS fiberglass carrier, 7 days
[16] = additive 8 g/l, paper spore carrier, 7 days
[17] = additive 8 g/l, steam sterilized and inoculated with less than 100 spores, no H2O2
[18] = additive 8 g/l, steam sterilized, not inoculated

Row | Molecule | No. Pos. CRANEGLAS [1, 3] | No. Pos. Paper [1, 4] | Positive Control [1, 5] | Negative Control [1, 6] | No. Pos. CRANEGLAS [1, 7] | No. Pos. Paper [1, 8] | Positive Control [1, 9] | Negative Control [1, 10] | No. Pos. CRANEGLAS [1, 11] | No. Pos. Paper [1, 12] | Positive Control [1, 13] | Negative Control [1, 14] | No. Pos. CRANEGLAS [1, 15] | No. Pos. Paper [1, 16] | Positive Control [1, 17] | Negative Control [1, 18] | further results
1 | CCSCC[C@@H](N)C(=O)O [D-ethionine] | 4 | 2 | Pos | Neg | 4 | 0 | Pos | Neg | 4 | 2 | Pos | Neg | 4 | 3 | Pos | Neg | 
2 | O=C1O[C@H]([C@H](O)CO)C(O)=C1O [Isoascorbic acid] | 0 | 3 | Pos | Neg | 4 | 3 | Pos | Neg* | 4 | 3 | Pos* | Neg* | 4 | 3 | Pos* | Neg* | Additive level that effectively neutralized the paper carriers ([1]; paper carriers): 1 gram per liter
3 | N[C@@H](CS)C(=O)O [L-cysteine] | 4 | 1 | Pos | Neg | 4 | 0 | Pos | Neg | 4 | 3 | Pos | Neg | 4 | 3 | Pos | Neg | 
4 | CSCC[C@H](N)C(=O)O [Methionine] | 4 | 0 | Pos | Neg | 4 | 0 | Pos | Neg | 4 | 3 | Pos | Neg | 4 | 3 | Pos | Neg | 
5 | N[C@@H](CSCc1ccccc1)C(=O)O [S-benzyl-L-cysteine] | 4 | 0 | Pos | Neg | 4 | 0 | Pos | Neg | 4 | 0 | Pos | Neg |  |  |  |  | 
6 | CSC[C@H](N)C(=O)O [S-methyl-cysteine] | 4 | 0 | Pos | Neg | 4 | 0 | Pos | Neg | 4 | 2 | Pos | Neg | 4 | 3 | Pos* | Neg | 
7 | CC(=O)C(=O)[O-].[Na+] [Sodium pyruvate, sodium pyruvate] |  | 0 | Pos | Neg |  | 2 | Pos | Neg |  | 3 | Pos | Neg |  | 3 | Pos | Neg | 
8 | O=S([O-])([O-])=S.[Na+].[Na+] [Sodium thiosulfate, sodium thiosulfate] |  |  |  |  |  |  |  |  |  |  |  |  |  |  |  |  | Spore recovery ability (in words) [2]: good spore recovery agent; Additive level that effectively neutralized the paper carriers [1]: 1 gram per liter; Negative Control [1]: Neg and Neg*; No. Pos. CRANEGLAS [1]: 4; No. Pos. Paper [1]: 3; Positive Control [1]: Pos
9 | O=C(O)CCSCCC(=O)O [Thiodiproprionic acid, thiodiproprionic acid] | 1 | 0 | Pos | Neg | 3 | 0 | Neg^3 | Neg | 3 | 0 | Neg^3 | Neg | 3 | 3 | Pos | Neg | 
10 | Catalase (protein, UniProt P00432 2-527, looked up, enzyme neutralizer from Sigma-Aldrich, 226 units added per vial) Catalase: ADNRDPASDQMKHWKEQRAAQKPDVLTTGGGNPVGDKLNSLTVGPRGPLLVQDVVFTDEMAHFDRERIPERVVHAKGAGAFGYFEVTHDITRYSKAKVFEHIGKRTPIAVRFSTVAGESGSADTVRDPRGFAVKFYTEDGNWDLVGNNTPIFFIRDALLFPSFIHSQKRNPQTHLKDPDMVWDFWSLRPESLHQVSFLFSDRGIPDGHRHMNGYGSHTFKLVNANGEAVYCKFHYKTDQGIKNLSVEDAARLAHEDPDYGLRDLFNAIATGNYPSWTLYIQVMTFSEAEIFPFNPFDLTKVWPHGDYPLIPVGKLVLNRNPVNYFAEVEQLAFDPSNMPPGIEPSPDKMLQGRLFAYPDTHRHRLGPNYLQIPVNCPYRARVANYQRDGPMCMMDNQGGAPNYYPNSFSAPEHQPSALEHRTHFSGDVQRFNSANDDNVTQVRTFYLKVLNEEQRKRLCENIAGHLKDAQLFIQKKAVKNFSDVHPEYGSRIQALLDKYNEEKPKNAVHTYVQHGSHLSAREKANL |  |  |  |  |  |  |  |  |  |  |  |  |  |  |  |  | Neutralization of residual hydrogen peroxide (in words) [1]: sufficiently neutralized; No. Pos. CRANEGLAS ([1]; 226 units added per vial, CRANEGLAS fiberglass carrier, 7 days): 4; No. Pos. Paper ([1]; 226 units added per vial, paper spore carrier, 7 days): 3; Positive Control ([1]; 226 units added per vial, steam sterilized and inoculated): Pos; Negative Control ([1]; 226 units added per vial, steam sterilized, not inoculated): Neg
